1 molecule from US20250129050A1, “SYNTHESIS OF A KIF18A INHIBITOR” (Amgen Inc., priority 2022, published 2025) can be followed below.

The data set can be described thus: Dynamic Vapor Sorption (DVS) moisture sorption with pre and post DVS XRPD. Type of data set: physicochemical. To be noted: after exposure to 80% relative humidity at 25° C. for 24 hours; hydrate. The protocol: Moisture sorption data were collected using a DVS Endeavour. A sample size of about 30 mg was used. The temperature was 25° C. The relative humidity (RH) was held to 80% for 24 hours. Mass was recorded at the beginning and end of the experiment. Stability and Hygroscopicity Features of Crystalline Compound 6a-I as shown by Pre and Post DVS XRPD Experiment: Crystalline Compound 6a-I was exposed to 80% relative humidity at 25° C. for 24 hours using a DVS Endeavor instrument. The mass was recorded at the beginning and end of the exposure. […] Dynamic Vapor Sorption (DVS): The crystalline Compound 6a-I can be characterized by a DVS moisture sorption profile.

Entries after “also recorded” stand apart in the source; their conditions may differ.

With `O=S(CCOCc1ccccc1)[O][Ca][O]S(=O)CCOCc1ccccc1` (stereo not shown) [Compound 6a-I, calcium 2-(benzyloxy)ethane-1-sulfinate 4/3 hydrate], the “crystalline form stability (XRPD pre DVS vs post DVS)” value is on record as “no crystalline form change; also recorded: stable crystalline polymorph form”.
